The results in this text go back to patent US10065941B2, “Aminotriazine derivative and pharmaceutical composition comprising the same” (Shionogi & Co., Ltd., priority 2013, dated 2018).

Molecules are shown by their SMILES.

One data set deals with human P2X3 receptor (Homo sapiens (Human), UniProt P56373). Nature of the data set: Evaluation of human P2X3 receptor inhibitory activity (Test Example 1). The conditions noted are these: C6BU-1 cell transfected with human P2X3 receptor gene, FLIPR 384. The format is cell-based. In a few lines: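 FLIPR calcium read-out: signal taken as peak fluorescence after ATP addition divided by starting fluorescence, and IC50 calculated from it. Compound added 5 min before 150 nM ATP solution (pre-dispense stock) to Fluo-3-AM-loaded C6BU-1 cells stably transfected with human P2X3; HEPES buffer pH 7.5 with probenecid.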

Data set [1] in a line: Pharmacokinetic test: bioavailability and total body clearance (Test Example 15). Particulars: SD rats, from AUCs of oral and intravenous groups. The format is in vivo. The method, then: • (1) Animals: SD rats were used • (2) Breeding conditions: SD rats were allowed to freely take solid food and sterilized tap water. • (3) Dose and grouping: orally or intravenously administered at a predetermined dose; grouping was as follows (Dose depends on the compound)
Oral administration: 1 mg/kg (n=2)
The total body clearance (CLtot) was calculated by dividing the dose by the AUC of the intravenous administration group.

The nature of data set [2]: Metabolism stability test, pooled human hepatic microsomes (Test Example 11). The format is in vitro ADME. The conditions noted are these: human liver microsomes, 30 minutes, compound concentration 0.5 μmol/L. The method, then: Using commercially available pooled human hepatic microsomes, a test compound is reacted for a constant time, a remaining rate is calculated by comparing a reacted sample and an unreacted sample, thereby, a degree of metabolism in liver is assessed.
A reaction was performed (oxidative reaction) at 37° C. for 0 minute or 30 minutes in the presence of 1 mmol/L NADPH in 0.2 mL of a buffer (50 mmol/L tris-HCl pH 7.4, 150 mmol/L potassium chloride, 10 mmol/L magnesium chloride) containing 0.5 mg protein/mL of human liver microsomes. After the reaction, 50 μL of the reaction solution was added to 100 μL of a methanol/acetonitrile=1/1 (v/v), mixed and centrifuged at 3000 rpm for 15 minutes. The test compound in the supernatant was quantified by LC/MS/MS, and a remaining amount of the test compound after the reaction was calculated, letting a compound amount at 0 minute reaction time to be 100%.
The remaining rate at the compound concentration 0.5 μmol/L are shown below.

The target of another data set is rat P2X3 receptor (Rattus norvegicus (Rat), UniProt P49654). Nature of the data set: Evaluation of rat P2X3 receptor inhibitory activity (Test Example 3). The format is cell-based. The conditions noted are these: rat P2X3 receptor gene expressed in C6BU-1 cell; read-out: ratP2X3 IC50. The method, then:
Rat P2X3 receptor gene (GenBank accession number NM_031075) was expressed in C6BU-1 cell. The C6BU-1 cells were seeded in a 96-well microtiter plate at a concentration of 2500 cells/well and cultured in the medium (7.0% fetal bovine serum, 7.0% horse serum, and 1% antibiotic and antifungal in DMEM) for one day at 37° C. under 5% carbon dioxide atmosphere. The plasmid was transfected into the cells using transfection reagent FuGENE6 (Promega). The transfected cells were cultured in the medium for one day at 37° C. under 5% carbon dioxide atmosphere. […] Measurement of fluorescence intensity by FDSS 3000 was started, and 40 μL of DMSO solutions containing different concentrations of the test compound as prepared by dilution with dilution buffer (20 mM HEPES, 137 mM NaCl, 5.27 mM KCl, 0.9 mM MgCl2, 1.26 mM CaCl2, 5.6 mM D-glucose, 2.5 mM probenecid, 0.1% Pluronic F-127, pH7.5) were dispensed to each well through the built-in automatic dispenser. Five minutes after, 50 nM ATP solution (50 μL) prepared by dilution with the dilution buffer was dispensed through the built-in automatic dispenser, and the measurement of fluorescence intensity was continued for 4 min. For each well, the specific maximum fluorescence intensity was calculated as the ratio of the maximum fluorescence intensity after addition of the ATP solution to the fluorescence intensity at the starting of the measurement. […]

Chain of human P2X3 receptor (P56373 whole entry): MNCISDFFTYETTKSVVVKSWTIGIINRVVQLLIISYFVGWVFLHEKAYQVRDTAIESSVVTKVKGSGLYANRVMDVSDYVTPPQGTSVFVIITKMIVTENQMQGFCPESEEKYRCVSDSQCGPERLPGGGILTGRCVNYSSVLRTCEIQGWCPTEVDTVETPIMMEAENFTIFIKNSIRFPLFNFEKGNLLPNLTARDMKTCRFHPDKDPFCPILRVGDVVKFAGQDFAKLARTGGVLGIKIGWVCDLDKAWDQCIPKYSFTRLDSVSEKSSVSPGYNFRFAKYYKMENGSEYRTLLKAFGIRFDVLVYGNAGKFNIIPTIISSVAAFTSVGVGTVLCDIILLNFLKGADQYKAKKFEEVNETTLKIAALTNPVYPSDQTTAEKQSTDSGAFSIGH
Chain of rat P2X3 receptor (P49654 whole entry): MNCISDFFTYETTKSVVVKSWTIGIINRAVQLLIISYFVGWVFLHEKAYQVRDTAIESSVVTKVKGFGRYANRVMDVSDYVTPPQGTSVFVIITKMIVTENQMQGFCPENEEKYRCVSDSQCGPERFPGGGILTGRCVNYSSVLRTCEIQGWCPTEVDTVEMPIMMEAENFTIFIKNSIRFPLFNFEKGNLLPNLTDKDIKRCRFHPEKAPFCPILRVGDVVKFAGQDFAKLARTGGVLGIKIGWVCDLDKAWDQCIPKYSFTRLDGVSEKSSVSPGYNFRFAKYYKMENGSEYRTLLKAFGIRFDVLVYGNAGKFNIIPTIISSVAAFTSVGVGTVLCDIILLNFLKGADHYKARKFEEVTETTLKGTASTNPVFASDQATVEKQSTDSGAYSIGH

`Cc1ccc(Oc2ccc(/N=c3\[nH]c(=O)n(CC(C)(C)C(=O)O)c(=O)n3Cc3ccc(Cl)cc3)cc2)nc1` [Compound I-058] showed an IC50 at human P2X3 receptor of 6 nM. Moreover, the BA in data set [1] turned out to be 67.2%.
In the same order, the values of `O=C(O)C1(Cn2c(=O)[nH]/c(=N\c3ccc(Oc4cccc(F)n4)cc3)n(Cc3ccc(Cl)cc3)c2=O)CC1` [Compound I-017] are 6 nM and 80.7%.
Consider `C[C@@H](Cn1c(=O)[nH]/c(=N\c2ccc(Oc3cc(F)ccn3)cc2)n(Cc2ccc(Cl)cc2)c1=O)C(=O)O` [Compound I-070], for which, on human P2X3 receptor, the IC50 was 5 nM. The “Metabolism Stability (remaining rate)” value in data set [2] is recorded as 103%.
Take `C[C@@H](Cn1c(=O)[nH]/c(=N\c2ccc(Oc3cccc(Cl)n3)cc2)n(Cc2ccc(Cl)cc2)c1=O)C(=O)O` [Compound I-014]: on human P2X3 receptor, it took 7 nM to reach half-maximal inhibition (IC50). Moreover, in data set [1], the BA was 106.2%.
Take `COc1cc(Oc2ccc(/N=c3\[nH]c(=O)n([C@@H](C)[C@@H](C)C(=O)O)c(=O)n3Cc3ccc(Cl)cc3)cc2)ccn1` [Compound R-009]: the IC50 was 7 nM against human P2X3 receptor and 4 nM at rat P2X3 receptor.
The molecule `O=c1[nH]/c(=N\c2ccc(Oc3ncccc3F)cc2)n(Cc2ccc(Cl)cc2)c(=O)n1[C@H]1C[C@H](C(=O)O)C1` [Compound I-063] gave an IC50 at human P2X3 receptor of 9 nM. The “Metabolism Stability (remaining rate)” value in data set [2] stood at 97%.
`Cc1ccc(Cn2c(=O)n(C[C@H](C)C(=O)O)c(=O)[nH]/c2=N\c2ccc(Oc3ccc(F)cn3)cc2)cc1` [Compound I-040] yielded a BA in data set [1] of 70.3%.
`C[C@@H](Cn1c(=O)[nH]/c(=N\c2ccc(Oc3cccc(F)n3)cc2)n(Cc2ccc(F)cc2F)c1=O)C(=O)O` [Compound I-029] displayed an IC50 against human P2X3 receptor of 14 nM. Also, the “Metabolism Stability (remaining rate)” value in data set [2] was 100%.
As to `CC(C)(Cn1c(=O)[nH]/c(=N\c2ccc(Oc3cnccn3)c(F)c2)n(Cc2ccc(Cl)cc2)c1=O)C(=O)O` [Compound R-056], inhibition on human P2X3 receptor was half-maximal at 10 nM (IC50).
In turn, `C[C@@H](Cn1c(=O)[nH]/c(=N\c2ccc(Oc3cccc(F)n3)cc2)n(CC2CCC3(CC2)CC3)c1=O)C(=O)O` [Compound I-234] gave an IC50 against human P2X3 receptor of 7 nM.
In turn, `CCOC(=O)Cn1c(=O)[nH]/c(=N\c2ccc(Oc3ccc(C#N)cn3)cc2)n(Cc2ccc(Cl)cc2)c1=O` [Compound R-313] gave an IC50 on human P2X3 receptor of 3 nM.
For the molecule `O=C(Cn1c(=O)[nH]/c(=N\c2ccc(Oc3ccccn3)cc2)n(Cc2ccc(Cl)cc2)c1=O)NCCO` [Compound R-242], half-maximal inhibition against human P2X3 receptor (IC50) required 5 nM.
Take `C[C@@H](Cn1c(=O)[nH]/c(=N\c2ccc(Oc3ccccn3)cc2)n(CC2CC3(CCC3)C2)c1=O)C(=O)O` [Compound I-263]: the IC50 against human P2X3 receptor was determined as 5 nM.
In turn, `Cc1ccc(Cn2c(=O)n([C@H](C)CC(=O)O)c(=O)[nH]/c2=N\c2ccc(Oc3ccccn3)cc2)cc1` [Compound I-187] yielded an IC50 at human P2X3 receptor of 8 nM.
On the same count and under the same terms, the value for `CC(C)(Cn1c(=O)[nH]/c(=N\c2ccc(Oc3ncccc3F)cc2)n(Cc2ccc(Cl)cc2)c1=O)C(=O)O` [Compound I-009] was 7 nM; that for `CC(C)(Cn1c(=O)[nH]/c(=N\c2ccc(Oc3ccc(F)cn3)cc2)n(Cc2ccc(Cl)cc2)c1=O)C(=O)O` [Compound I-005] was 8 nM; that for `COC(=O)[C@@H](C)Cn1c(=O)[nH]/c(=N\c2ccc(Oc3cc(C)ccn3)cc2)n(Cc2ccc(Cl)cc2)c1=O` [Compound I-076] was 22 nM.
Same read-out and setting: next, `O=C(O)CCn1c(=O)[nH]/c(=N\c2ccc(Oc3ncccc3F)cc2)n(Cc2ccc(CF)cc2)c1=O` [Compound R-276]: 42 nM; `O=c1[nH]/c(=N\c2ccc(Oc3ccc(F)cn3)cc2)n(Cc2ccc(Cl)cc2)c(=O)n1[C@H]1C[C@@H](C(=O)O)C1` [Compound I-020]: 9 nM; `O=c1[nH]/c(=N\c2ccc(Oc3ccccn3)cc2)n(Cc2ccc(Cl)cc2)c(=O)n1CCO` [Compound R-257, 1-(4-chlorobenzyl)-3-(2-hydroxyethyl)-6-[4-(2-pyridyloxy)phenylimino]-1,3,5-triazinane-2,4-dione]: 10 nM.
The same measure, in the same setting: the value for `COC(=O)CCn1c(=O)[nH]/c(=N\c2ccc(Oc3ccc(Cl)cn3)cc2)n(Cc2ccc(Cl)cc2)c1=O` [Compound R-287] was 6 nM.
As to `COC(=O)CCn1c(=O)[nH]/c(=N\c2ccc(Oc3cccc(C(C)=O)n3)cc2)n(Cc2ccc(Cl)cc2)c1=O` [Compound R-302], at human P2X3 receptor, half-maximal inhibition (IC50) was put at 6 nM.
On the same count and under the same terms, next, `Cc1ccc(Cn2c(=O)n(CCC(=O)O)c(=O)[nH]/c2=N\c2ccc(Oc3ccccn3)c(F)c2)cc1` [Compound R-280]: 9 nM; `CC(C)Oc1ccc(/N=c2\[nH]c(=O)n([C@H]3C[C@H](C(=O)O)C3)c(=O)n2Cc2ccc(Cl)cc2)cc1Cl` [Compound R-021]: 15 nM; `O=C(O)C1(Cn2c(=O)[nH]/c(=N\c3ccc(Oc4ccc(F)cn4)cc3)n(Cc3ccc(Cl)cc3)c2=O)COC1` [Compound I-059]: 16 nM.
Molecule `COC(=O)C(C)(C)Cn1c(=O)[nH]/c(=N\c2ccc(N3CCOCC3)c(F)c2)n(Cc2ccc(Cl)cc2)c1=O` [Compound R-107] had an IC50 at human P2X3 receptor of 217 nM.
Regarding `C[C@@H](Cn1c(=O)[nH]/c(=N\c2ccc(Oc3ccccn3)cc2)n(Cc2ccc(Cl)cc2)c1=O)C(=O)O` [Compound I-127], at human P2X3 receptor, the IC50 stood at 4 nM. Moreover, the BA in data set [1] amounted to 52.8%.
The molecule `CCOC(=O)C1(Cn2c(=O)[nH]/c(=N\c3ccc(Oc4ccccn4)cc3)n(Cc3ccc(Cl)cc3)c2=O)CC1` [Compound I-192] displayed an IC50 against human P2X3 receptor of 5 nM.
`COC(=O)C(C)(C)Cn1c(=O)[nH]/c(=N\c2ccc(OC3CCC3)c(F)c2)n(Cc2ccc(Cl)cc2)c1=O` [Compound R-073] showed an IC50 at human P2X3 receptor of 31 nM.
Molecule `COC(=O)[C@@H](C)Cn1c(=O)[nH]/c(=N\c2ccc(Oc3cccc(OC)n3)cc2)n(Cc2ccc(C)cc2)c1=O` [Compound I-221] displayed an IC50 at human P2X3 receptor of 11 nM.
Same read-out and setting: the value for `COC(=O)C(C)(C)Cn1c(=O)[nH]/c(=N\c2ccc(Oc3cncc(Cl)c3)cc2)n(Cc2ccc(Cl)cc2)c1=O` [Compound R-080] was 13 nM.
With `C[C@@H](Cn1c(=O)[nH]/c(=N\c2ccc(Oc3ccccn3)c(F)c2)n(C[C@H]2CC[C@H](C)CC2)c1=O)C(=O)O` [Compound I-244], 8 nM corresponded to half-maximal inhibition against human P2X3 receptor (IC50).
For the molecule `CCOC(=O)Cn1c(=O)[nH]/c(=N\c2ccc(Oc3ccccn3)cc2)n(Cc2ccc(F)cc2)c1=O` [Compound R-307], the IC50 on human P2X3 receptor was 13 nM.

As a reminder, the IC50 is the concentration at which inhibition is half-maximal.
